ChEMBL document CHEMBL1148165, “A novel amino acid glycoside and three amino acids from Allium sativum” (J Nat Prod, 1993)
Active and inactive are the calls of the source. The calls are words filed in the database; no cut-off is given here.

Tests used:
Bacillus subtilis = assay: Antimicrobial activity against Bacillus subtilis ATCC 6633 at 25 ug; type: functional, organism-based
Micrococcus luteus = assay: Antimicrobial activity against Micrococcus luteus ATCC 9341 at 25 ug; type: functional, organism-based
Penicillium oxalicum = assay: Antimicrobial activity against Penicillium oxalicum CBS 219.30 at 25 ug; type: functional, organism-based
Escherichia coli = assay: Antimicrobial activity against Escherichia coli ATCC 25922 at 25 ug; type: functional, organism-based
Platelet [1] = assay: Inhibition of collagen-induced platelet aggregation in human platelet-rich plasma at 1 mM by turbidimetric method; type: functional; set-up: Activity: scale not given: the % may be the effect or the level left
Platelet [2] = assay: Inhibition of ADP-induced platelet aggregation in human platelet-rich plasma at 1 mM by turbidimetric method; type: functional; set-up: Activity: scale not given: the % may be the effect or the level left
Platelet [3] = assay: Inhibition of collagen-induced platelet aggregation in human platelet-rich plasma assessed as increase in lag time at 1 mM by turbidimetric method; type: functional; set-up: scale not given: the % may be the effect or the level left
Platelet [4] = assay: Inhibition of epinephrine-induced platelet aggregation in human platelet-rich plasma at 1 mM by turbidimetric method; type: functional; set-up: scale not given: the % may be the effect or the level left

Question: For C[S+]([O-])C[C@H](N)C(=O)O (some centres not stated), which Activity (Bacillus subtilis) is on record?
Answer: inactive

Question: What about the Activity (Micrococcus luteus) of the same molecule?
Answer: inactive

Question: What about the Activity (Penicillium oxalicum) of the same molecule?
Answer: inactive

Question: And the Activity (Escherichia coli)?
Answer: inactive

Question: What does the source list for C/C=C/[S+]([O-])C[C@H](N)C(=O)O (some centres not stated)?
Answer: Activity (Bacillus subtilis): inactive; Activity (Micrococcus luteus): inactive; Activity (Penicillium oxalicum): inactive; Activity (Escherichia coli): inactive

Question: What does the source list for C=CC[S+]([O-])C[C@H](N)C(=O)O (some centres not stated) [ALLIIN]?
Answer: Activity (Bacillus subtilis): inactive; Activity (Micrococcus luteus): inactive; IC50 (Platelet [1]; Homo sapiens, Platelet, Plasma): 60 µM; Activity (Penicillium oxalicum): inactive; Activity (Escherichia coli): inactive; IC50 (Platelet [2]; Homo sapiens, Platelet, Plasma): 60 µM

Question: For C=CC[S+]([O-])C[C@H](NC[C@@]1(O)OC[C@@H](O)[C@@H](O)[C@@H]1O)C(=O)O (some centres not stated), which Activity (Bacillus subtilis) is on record?
Answer: inactive

Question: What about the Activity (Platelet [3]) of the same molecule?
Answer: 50%

Question: What about the Activity (Micrococcus luteus) of the same molecule?
Answer: inactive

Question: What about the Activity (Platelet [1]) of the same molecule?
Answer: 82%

Question: And the Activity (Penicillium oxalicum)?
Answer: inactive

Question: What about the Activity (Platelet [4]) of the same molecule?
Answer: 40.2%

Question: What about the Activity (Escherichia coli) of the same molecule?
Answer: inactive

Question: What about the Activity (Platelet [2]) of the same molecule?
Answer: 39.2%
